Source: patent US11612604B2, “Methods of treating cancer with PLK4 inhibitors” (LUDWIG INSTITUTE FOR CANCER RESEARCH LTD, priority 2017, dated 2023)

molecular target: T1, PLK4 (Homo sapiens, UniProt O00444); experiment: Activity (IC50) of the Table 1 compounds as PLK4 inhibitors; type: biochemical; details: Table 1, IC50 class
T1 sequence (O00444 1-970): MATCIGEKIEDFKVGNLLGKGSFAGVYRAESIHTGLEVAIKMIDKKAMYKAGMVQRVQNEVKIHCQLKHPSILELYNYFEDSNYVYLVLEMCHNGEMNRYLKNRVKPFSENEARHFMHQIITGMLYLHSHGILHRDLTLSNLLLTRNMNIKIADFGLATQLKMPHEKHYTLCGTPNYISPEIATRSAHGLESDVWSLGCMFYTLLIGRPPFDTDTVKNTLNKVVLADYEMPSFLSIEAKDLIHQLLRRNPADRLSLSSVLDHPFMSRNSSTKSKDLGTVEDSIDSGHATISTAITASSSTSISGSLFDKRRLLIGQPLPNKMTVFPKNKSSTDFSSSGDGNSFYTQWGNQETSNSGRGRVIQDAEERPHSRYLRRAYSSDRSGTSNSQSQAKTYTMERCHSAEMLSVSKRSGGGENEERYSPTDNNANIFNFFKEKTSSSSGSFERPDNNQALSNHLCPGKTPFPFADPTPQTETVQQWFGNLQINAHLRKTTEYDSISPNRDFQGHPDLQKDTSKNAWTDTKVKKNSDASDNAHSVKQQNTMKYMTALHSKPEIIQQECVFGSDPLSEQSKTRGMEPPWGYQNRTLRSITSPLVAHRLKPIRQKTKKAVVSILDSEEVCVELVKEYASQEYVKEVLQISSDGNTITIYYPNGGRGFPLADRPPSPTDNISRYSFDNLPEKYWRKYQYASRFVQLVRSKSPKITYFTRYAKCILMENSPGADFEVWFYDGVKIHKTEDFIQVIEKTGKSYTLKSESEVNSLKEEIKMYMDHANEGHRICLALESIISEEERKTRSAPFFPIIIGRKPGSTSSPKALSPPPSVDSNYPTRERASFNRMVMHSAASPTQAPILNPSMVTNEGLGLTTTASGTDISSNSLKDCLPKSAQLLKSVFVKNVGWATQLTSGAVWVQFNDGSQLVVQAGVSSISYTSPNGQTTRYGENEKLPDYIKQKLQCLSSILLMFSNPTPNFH

Row | SMILES | IC50 [nM]
1 | COc1c(Nc2cc(C)[nH]n2)nc(Sc2ccc(NC(=O)C3CC3)cc2)nc1N1CCN(C)CC1 | < 100
2 | COc1c(C)nc(Sc2ccc(NC(=O)C3CC3)cc2)nc1Nc1cc(C)[nH]n1 | < 100
3 | Cc1cc(Nc2nc(Sc3ccc(NC(=O)C4CC4)cc3)nc3c2C(C)CC3)n[nH]1 (stereo not drawn) | < 100
4 | COCCN1CCN(c2nc(Sc3ccc(NC(=O)C4CC4)cc3)nc(Nc3cc(C)[nH]n3)c2C)CC1 | < 100
5 | Cc1cc(Nc2nc(Sc3ccc(NC(=O)C4CC4)cc3)nc(N3CCN(CCN(C)C)CC3)c2C)n[nH]1 | < 100
6 | Cc1cc(Nc2nc(Sc3ccc(NC(=O)C4CC4)cc3)nc(N(C)C)c2C)n[nH]1 | < 100
7 | CCN(C)c1nc(Sc2ccc(NC(=O)C3CC3)cc2)nc(Nc2cc(C)[nH]n2)c1C | < 100
8 | COCCC(=O)N1CCN(c2nc(Sc3ccc(NC(=O)C4CC4)cc3)nc(Nc3cc(C)[nH]n3)c2OC)CC1 | < 100
9 | COc1c(Nc2cc(C)[nH]n2)nc(Sc2ccc(NC(=O)C3CC3)cc2)nc1N1CCN(CC2CC2)CC1 | < 100
10 | CNCCN1CCN(c2nc(Sc3ccc(NC(=O)C4CC4)cc3)nc(Nc3cc(C)[nH]n3)c2OC)CC1 | < 100
11 | CCC1CCc2nc(Sc3ccc(NC(=O)C4CC4)cc3)nc(Nc3cc(C)[nH]n3)c21 (stereo not drawn) | < 100
12 | CCOc1c(Nc2c[nH]c(C)c2)nc(Sc2ccc(NC(=O)C3CCCC3)cc2)nc1N1CCN(C(=O)CCOC)CC1 | 100 to 1000
13 | Cc1cc(Nc2nc(Sc3ccc(NC(=O)C4CCCC4)cc3)nc(N3CCN(CCN(C)C)CC3)c2C)n[nH]1 | < 100
14 | COCCN1CCN(c2nc(Sc3ccc(NC(=O)C4CCCC4)cc3)nc(Nc3cc(C)[nH]n3)c2C)CC1 | < 100
15 | CC(=O)N1CCN(c2nc(Sc3ccc(NC(=O)C4CCCC4)cc3)nc(Nc3cc(C)[nH]n3)c2C)CC1 | < 100
16 | Cc1cc(Nc2nc(Sc3ccc(NC(=O)C4CCCC4)cc3)nc(N3CCNCC3)c2C)n[nH]1 | < 100
17 | Cc1cc(Nc2nc(Sc3ccc(NC(=O)C4CCCC4)cc3)nc(N3CCOCC3)c2C)n[nH]1 | < 100
18 | Cc1cc(Nc2nc(Sc3ccc(NC(=O)C4CCCC4)cc3)nc(N3CCN(C4CCN(C)CC4)CC3)c2C)n[nH]1 | < 100
19 | COc1c(Nc2cc(C)[nH]n2)nc(Sc2ccc(NC(C)=O)cc2)nc1N1CCCCC1 | < 100
20 | CC(=O)Nc1ccc(Sc2nc(Nc3cc(C)[nH]n3)c(C)c(N(C)C(C)C)n2)cc1 | < 100
21 | CC(=O)Nc1ccc(Sc2nc(Nc3cc(C)[nH]n3)c(C)c(N3CCN(C(=O)CCN(C)C)CC3)n2)cc1 | < 100
22 | Cc1cc(Nc2nc(Sc3ccc(NC(=O)C4CCCC4)cc3)nc(N(C)C(C)C)c2C)n[nH]1 | < 100
23 | COCC(=O)N1CCN(c2nc(Sc3ccc(NC(=O)C4CCCC4)cc3)nc(Nc3cc(C)[nH]n3)c2C)CC1 | < 100

Row | SMILES | IC50 [nM]
24 | Cc1cc(Nc2nc(Sc3ccc(NC(=O)C4CCCC4)cc3)nc(N3CCCCC3)c2C)n[nH]1 | < 100
25 | CCN(C)c1nc(Sc2ccc(NC(=O)C3CCCC3)cc2)nc(Nc2cc(C)[nH]n2)c1C | < 100
26 | Cc1cc(Nc2nc(Sc3ccc(NC(=O)C4CCCC4)cc3)nc(N(C)C)c2C)n[nH]1 | < 100
27 | CSc1nc(Nc2cc(C)[nH]n2)c(Cl)c(N2CCCCC2)n1 | < 100
28 | Cc1cc(Nc2nc(Sc3ccccc3)nc(N3CCCCC3)c2C)n[nH]1 | < 100
29 | Cc1ccc(Sc2nc(Nc3cc(C)[nH]n3)c(C)c(N3CCCCC3)n2)cc1 | < 100
30 | Cc1cc(Nc2nc(Sc3ccc(N)cc3)nc(N3CCCCC3)c2C)n[nH]1 | < 100
31 | COc1c(Nc2cc(C)[nH]n2)nc(Sc2ccc(S(=O)(=O)Cc3ccccc3)cc2)nc1N1CCC(CCN2CCN(C)CC2)CC1 | < 100
32 | COc1c(Nc2cc(C)[nH]n2)nc(Sc2ccc(S(=O)(=O)Cc3ccccc3)cc2)nc1N1CCN(CCN2CCCCCC2)CC1 | < 100
33 | COc1c(Nc2cc(C)[nH]n2)nc(Sc2ccc(NC(C)=O)cc2)nc1N1CCN(C2CCN(C)CC2)CC1 | < 100
34 | CNc1ccc(Sc2nc(Nc3cc(C)[nH]n3)c(C)c(N3CCCCC3)n2)cc1 | < 100
35 | Cc1cc(Nc2nc(Sc3ccc(N(C)C)cc3)nc(N3CCCCC3)c2C)n[nH]1 | < 100
36 | CC(=O)Nc1ccc(Sc2nc(Nc3cc(C)[nH]n3)cc(N3CCCCC3)n2)cc1 | < 100
37 | CCN(CC)c1nc(Sc2ccc(NC(C)=O)cc2)nc(Nc2cc(C)[nH]n2)c1OC | < 100
38 | CCN(C)c1nc(Sc2ccc(NC(C)=O)cc2)nc(Nc2cc(C)[nH]n2)c1OC | < 100
39 | COc1c(Nc2cc(C)[nH]n2)nc(Sc2ccc(NC(C)=O)cc2)nc1N(C)C | < 100
40 | COc1c(Nc2cc(C)[nH]n2)nc(Sc2ccc(NC(C)=O)cc2)nc1N1CCN(C(C)=O)CC1 | < 100
41 | COCCN1CCN(c2nc(Sc3ccc(NC(C)=O)cc3)nc(Nc3cc(C)[nH]n3)c2OC)CC1 | < 100
42 | COc1c(Nc2cc(C)[nH]n2)nc(Sc2ccc(NC(C)=O)cc2)nc1N(C)C(C)C | < 100
43 | COCC(=O)N1CCN(c2nc(Sc3ccc(NC(C)=O)cc3)nc(Nc3cc(C)[nH]n3)c2OC)CC1 | < 100
44 | COc1c(Nc2cc(C)[nH]n2)nc(Sc2ccc(NC(C)=O)cc2)nc1N1CCC(F)(F)CC1 | < 100
45 | COc1c(Nc2cc(C)[nH]n2)nc(Sc2ccc(NC(C)=O)cc2)nc1N1CC=CCC1 | < 100

Next, values leading:

Row | IC50 [nM] | SMILES
46 | < 100 | Cc1cc(Nc2nc(Sc3ccc(NC(=O)C4CC4)cc3)nc(N3CCOCC3)c2C)n[nH]1
47 | < 100 | Cc1cc(Nc2nc(Sc3ccc(NC(=O)C4CC4)cc3)nc(N3CCN(C(C)C)CC3)c2C)n[nH]1
48 | < 100 | CC(=O)N1CCN(c2nc(Sc3ccc(NC(=O)C4CC4)cc3)nc(Nc3cc(C)[nH]n3)c2C)CC1
49 | < 100 | Cc1cc(Nc2nc(Sc3ccc(NC(=O)C4CC4)cc3)nc(N3CCN(C)C(C)C3)c2C)n[nH]1 (stereo not drawn)
50 | < 100 | Cc1cc(Nc2nc(Sc3ccc(NC(=O)C4CCC4)cc3)nc(N3CCN(C)CC3)c2C)n[nH]1
51 | < 100 | CC(=O)Nc1ccc(Sc2nc(Nc3cc(C)[nH]n3)c(C)c(N3CCN(C)CC3)n2)cc1
52 | < 100 | CC(=O)Nc1ccc(Sc2nc(Nc3cc(C)[nH]n3)c(C)c(N3CCN(CCN(C)C)CC3)n2)cc1
53 | < 100 | COCCN1CCN(c2nc(Sc3ccc(NC(C)=O)cc3)nc(Nc3cc(C)[nH]n3)c2C)CC1
54 | < 100 | CC(=O)Nc1ccc(Sc2nc(Nc3cc(C)[nH]n3)c(C)c(N3CCN(C(C)=O)CC3)n2)cc1
55 | < 100 | CC(=O)Nc1ccc(Sc2nc(Nc3cc(C)[nH]n3)c(C)c(N3CCNCC3)n2)cc1
56 | < 100 | CC(=O)Nc1ccc(Sc2nc(Nc3cc(C)[nH]n3)c(C)c(N3CCOCC3)n2)cc1
57 | < 100 | CC(=O)Nc1ccc(Sc2nc(Nc3cc(C)[nH]n3)c(C)c(N3CCN(C4CCN(C)CC4)CC3)n2)cc1
58 | < 100 | COCC(=O)N1CCN(c2nc(Sc3ccc(NC(C)=O)cc3)nc(Nc3cc(C)[nH]n3)c2C)CC1
59 | < 100 | CC(=O)Nc1ccc(Sc2nc(Nc3cc(C)[nH]n3)c(C)c(N3CCC(O)CC3)n2)cc1
60 | < 100 | CC(=O)Nc1ccc(Sc2nc(Nc3cc(C)[nH]n3)c(C)c(N3CCCC3)n2)cc1
61 | < 100 | CC(=O)Nc1ccc(Sc2nc(Nc3cc(C)[nH]n3)c(C)c(N3CCCCCC3)n2)cc1
62 | < 100 | CC(=O)Nc1ccc(Sc2nc(Nc3cc(C)[nH]n3)c(C)c(N3CC=CCC3)n2)cc1

Row | IC50 [nM] | SMILES
63 | < 100 | CC(=O)Nc1ccc(Sc2nc(Nc3cc(C)[nH]n3)c(C)c(N3CC=C(F)CC3)n2)cc1
64 | < 100 | CC(=O)Nc1ccc(Sc2nc(Nc3cc(C)[nH]n3)c(C)c(N3CCC(C)CC3)n2)cc1
65 | < 100 | CC(=O)Nc1ccc(Sc2nc(Nc3cc(C)[nH]n3)c(Cl)c(N3CCN(C)CC3)n2)cc1
66 | < 100 | CNC(=O)Nc1ccc(Sc2nc(Nc3cc(C)[nH]n3)c(C)c(N3CCCCC3)n2)cc1
67 | < 100 | COC(=O)Nc1ccc(Sc2nc(Nc3cc(C)[nH]n3)c(C)c(N3CCCCC3)n2)cc1
68 | < 100 | CC(=O)Nc1ccc(Sc2nc(Nc3cc(C)[nH]n3)c(C)c(N3CCC(F)(F)CC3)n2)cc1
69 | < 100 | CC(=O)Nc1ccc(Sc2nc(Nc3cc(C)[nH]n3)c(C)c(N3CCC(F)CC3)n2)cc1
70 | < 100 | COc1c(Nc2cc(C)[nH]n2)nc(Sc2ccc(NC(C)=O)cc2)nc1N1CCN(C)CC1
71 | < 100 | CC(=O)Nc1ccc(Sc2nc(Nc3cc(C)[nH]n3)c(Cl)c(N3CCCCC3)n2)cc1
72 | < 100 | COc1c(Nc2cc(C)[nH]n2)nc(Sc2ccc(NC(C)=O)cc2)nc1N1CCNCC1
73 | < 100 | COc1c(Nc2cc(C)[nH]n2)nc(Sc2ccc(NC(C)=O)cc2)nc1N1CCOCC1
74 | < 100 | COc1c(Nc2cc(C)[nH]n2)nc(Sc2ccc(NC(C)=O)cc2)nc1N1CCCC1
75 | < 100 | CC(=O)Nc1ccc(Sc2nc(Nc3cc(C)[nH]n3)c(C)c(N3CCCCC3C)n2)cc1 (stereo not drawn)
76 | < 100 | CCN1CCN(c2nc(Sc3ccc(NC(C)=O)cc3)nc(Nc3cc(C)[nH]n3)c2C)CC1
77 | < 100 | COc1c(Nc2cc(C)[nH]n2)nc(Sc2ccc(NC(C)=O)cc2)nc1N1CCC(F)CC1
78 | < 100 | COc1c(Nc2cc(C)[nH]n2)nc(Sc2ccc(NC(C)=O)cc2)nc1N1CCC(O)CC1
